Measured values reported in ChEMBL document CHEMBL2074207, “Functional characterization of human breast cancer resistance protein (BCRP, ABCG2) expressed in the oocytes of Xenopus laevis” (Mol Pharmacol, 2003).

These molecules were tested against T1, Broad substrate specificity ATP-binding cassette transporter ABCG2 (Homo sapiens, UniProt Q9UNQ0) (assay: TP_TRANSPORTER: uptake in BCRP-expressing oocyte cells). Conditions: xenopus laevis.
T1 sequence (Q9UNQ0 whole entry): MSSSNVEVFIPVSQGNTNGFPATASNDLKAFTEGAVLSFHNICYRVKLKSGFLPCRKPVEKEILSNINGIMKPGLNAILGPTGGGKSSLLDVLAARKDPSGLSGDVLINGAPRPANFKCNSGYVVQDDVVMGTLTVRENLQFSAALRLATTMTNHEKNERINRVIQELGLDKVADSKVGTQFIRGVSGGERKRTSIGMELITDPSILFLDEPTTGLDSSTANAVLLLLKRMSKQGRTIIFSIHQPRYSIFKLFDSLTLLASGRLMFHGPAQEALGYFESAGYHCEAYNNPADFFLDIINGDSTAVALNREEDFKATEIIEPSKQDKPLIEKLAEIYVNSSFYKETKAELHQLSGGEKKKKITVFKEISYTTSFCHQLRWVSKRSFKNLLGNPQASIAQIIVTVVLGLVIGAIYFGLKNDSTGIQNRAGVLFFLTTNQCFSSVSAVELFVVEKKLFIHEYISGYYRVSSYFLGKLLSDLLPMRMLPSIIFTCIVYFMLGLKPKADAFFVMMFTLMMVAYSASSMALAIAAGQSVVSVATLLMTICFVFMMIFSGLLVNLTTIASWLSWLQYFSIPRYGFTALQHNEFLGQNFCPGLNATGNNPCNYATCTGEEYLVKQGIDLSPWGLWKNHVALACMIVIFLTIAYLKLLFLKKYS
Format: functional, cell-based

Compound	Activity
CN1CC[C@H](c2c(O)cc(O)c3c(=O)cc(-c4ccccc4Cl)oc23)[C@H](O)C1 [ALVOCIDIB]	substrate []
COc1cccc2c1C(=O)c1c(O)c3c(c(O)c1C2=O)C[C@@](O)(C(C)=O)C[C@@H]3O[C@H]1C[C@H](N)[C@H](O)[C@H](C)O1 [DAUNORUBICIN]	substrate []
O=C1c2c(O)ccc(O)c2C(=O)c2c(NCCNCCO)ccc(NCCNCCO)c21 [MITOXANTRONE]	substrate []
COC(=O)c1ccccc1-c1c2ccc(=N)cc-2oc2cc(N)ccc12.Cl [RHODAMINE123]	substrate []
